The text below walks through data of patent US20260070945A1, “MACROCYCLIC IMMUNOMODULATORS” (Bristol-Myers Squibb Company, priority 2022, published 2026).

Where a SMILES comes first, the peptide text is derived from it. Bridges are numbered along the chain shown (N, C = ends). [ ]: non-standard residue; d: D form. The star is where a group is joined. Phe(4-COOH) = N[C@@H](Cc1ccc(C(=O)O)cc1)C(=O)O; Bip = N[C@@H](Cc1ccc(-c2ccccc2)cc1)C(=O)O; hArg = N=C(N)NCCCC[C@H](N)C(=O)O; 4Pal = N[C@@H](Cc1ccncc1)C(=O)O; Cha = N[C@@H](CC1CCCCC1)C(=O)O; Cit = NC(=O)NCCC[C@H](N)C(=O)O; Carboxymethyl = O=C(O)C*; NMeA = CN[C@@H](C)C(=O)O; Orn = NCCC[C@H](N)C(=O)O; Aun = NCCCCCCCCCCC(=O)O; Dab = NCC[C@H](N)C(=O)O; Dap = NC[C@H](N)C(=O)O; AEEA = NCCOCCOCC(=O)O

The target in the experiment is T1, PD-1/PD-L1 interaction (PE-labeled human PD-L1-Ig binding to Jurkat cell line over-expressing human PD-1) (Homo sapiens, UniProt Q15116).
T1 construct: expressed in transfected cells; host or cells: Jurkat
T1 sequence (Q15116 25-288): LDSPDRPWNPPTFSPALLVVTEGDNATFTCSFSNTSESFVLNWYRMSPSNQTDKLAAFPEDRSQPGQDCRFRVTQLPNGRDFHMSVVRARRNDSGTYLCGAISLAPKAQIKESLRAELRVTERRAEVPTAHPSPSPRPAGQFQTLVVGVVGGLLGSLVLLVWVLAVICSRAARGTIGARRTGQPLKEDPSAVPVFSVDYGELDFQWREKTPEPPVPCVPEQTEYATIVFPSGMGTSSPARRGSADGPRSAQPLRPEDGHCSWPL
Kind of experiment: Jurkat-PD-1 Cell Binding High-Content Screening Assay (CBA). To be noted: Jurkat-hPD-1 cells, PE-labeled PD-L1-Ig 20 nM final; read-out: Jurkat HPD1 PDL1 IC50. Put shortly:
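High-content imaging read-out of PE-PD-L1-Ig binding (20 nM final, 1 h) to Jurkat-hPD-1 cells, after 2 h compound exposure at 37 °C in DMEM with 10% FCS. Nuclei counterstained with Hoechst 33342 after paraformaldehyde fixation.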
The term IC50 denotes the point on the concentration scale where inhibition reaches its midpoint. Regarding `CC(C)C[C@@H]1NC(=O)[C@H](Cc2c[nH]c3ccccc23)NC(=O)[C@H](CC(=O)O)NC(=O)[C@H](Cc2ccc(C(=O)O)cc2)NC(=O)[C@H](Cc2ccc(OCC(=O)O)cc2)NC(=O)CSC[C@@H](C(=O)NCC(=O)NCCOCCOCC(=O)N[C@@H](CCCN)C(=O)NCCCCCCCCCCC(=O)O)NC(=O)[C@H](CCCN)NC(=O)[C@H](C(C)C)NC(=O)[C@H](CC2CCCCC2)NC(=O)[C@H](CCN)NC(=O)[C@@H](CC(C)C)NC(=O)[C@H](C)N(C)C(=O)[C@H](C(C)C)NC(=O)[C@H](Cc2ccc(-c3ccccc3)cc2)NC1=O` [Example 2162] ({CH2CO}-Y(Carboxymethyl)[Phe(4-COOH)]DWL[Bip]V[NMeA][dL][Dab][Cha]V[Orn]CG[AEEA][Orn][Aun]-OH; thioether N-14), the IC50 was 7.8 nM.

On to `CC(C)C[C@@H]1NC(=O)[C@H](Cc2c[nH]c3ccccc23)NC(=O)[C@H](CC(=O)O)NC(=O)[C@H](Cc2ccc(O)cc2)NC(=O)[C@H](Cc2ccncc2)NC(=O)CSC[C@@H](C(=O)NCCOCCOCC(=O)N[C@@H](CCCN)C(=O)NCCCCCCCCCCC(=O)O)NC(=O)[C@H](CCCN)NC(=O)[C@H](C(C)C)NC(=O)[C@H](CC2CCCCC2)NC(=O)[C@H](CCN)NC(=O)[C@@H](CC(C)C)NC(=O)[C@H](C)N(C)C(=O)[C@H](C(C)C)NC(=O)[C@H](Cc2ccc(-c3ccccc3)cc2)NC1=O` [Example 2163] ({CH2CO}-[4Pal]YDWL[Bip]V[NMeA][dL][Dab][Cha]V[Orn]C[AEEA][Orn][Aun]-OH; thioether N-14), for which the IC50 turned out to be 17.6 nM.

On to `CC(C)C[C@@H]1NC(=O)[C@H](Cc2c[nH]c3ccccc23)NC(=O)[C@H](CC(=O)O)NC(=O)[C@H](Cc2ccncc2)NC(=O)[C@H](Cc2ccc(OCC(=O)O)cc2)NC(=O)CSC[C@@H](C(=O)NCCOCCOCC(=O)N[C@@H](CN)C(=O)NCCCCCCCCCCC(=O)O)NC(=O)[C@H](CCCNC(N)=O)NC(=O)[C@H](C(C)C)NC(=O)[C@H](CC2CCCCC2)NC(=O)[C@H](CCN)NC(=O)[C@@H](CC(C)C)NC(=O)[C@H](C)N(C)C(=O)[C@H](C(C)C)NC(=O)[C@H](Cc2ccc(-c3ccccc3)cc2)NC1=O` [Example 2164] ({CH2CO}-Y(Carboxymethyl)[4Pal]DWL[Bip]V[NMeA][dL][Dab][Cha]V[Cit]C[AEEA][Dap][Aun]-OH; thioether N-14), for which the IC50 was 11.9 nM.

Take `CC(C)C[C@@H]1NC(=O)[C@H](Cc2c[nH]c3ccccc23)NC(=O)[C@H](CC(=O)O)NC(=O)[C@H](Cc2ccncc2)NC(=O)[C@H](Cc2ccc(OCC(=O)O)cc2)NC(=O)CSC[C@@H](C(=O)N[C@@H](CCCN)C(=O)NCCOCCOCC(=O)NCCCCCCCCCCC(=O)O)NC(=O)[C@H](CCCNC(N)=O)NC(=O)[C@H](C(C)C)NC(=O)[C@H](CC2CCCCC2)NC(=O)[C@H](CN)NC(=O)[C@@H](CC(C)C)NC(=O)[C@H](C)N(C)C(=O)[C@H](C(C)C)NC(=O)[C@H](Cc2ccc(-c3ccccc3)cc2)NC1=O` [Example 2166] ({CH2CO}-Y(Carboxymethyl)[4Pal]DWL[Bip]V[NMeA][dL][Dap][Cha]V[Cit]C[Orn][AEEA][Aun]-OH; thioether N-14): the IC50 was 24.7 nM.

Consider `CC(C)C[C@@H]1NC(=O)[C@H](Cc2c[nH]c3ccccc23)NC(=O)[C@H](CC(=O)O)NC(=O)[C@H](Cc2ccncc2)NC(=O)[C@H](Cc2ccc(OCC(=O)O)cc2)NC(=O)CSC[C@@H](C(=O)N[C@@H](CCCNC(N)=O)C(=O)NCCOCCOCC(=O)NCCCCCCCCCCC(=O)O)NC(=O)[C@H](CCCNC(N)=O)NC(=O)[C@H](C(C)C)NC(=O)[C@H](CC2CCCCC2)NC(=O)[C@H](CCN)NC(=O)[C@@H](CC(C)C)NC(=O)[C@H](C)N(C)C(=O)[C@H](C(C)C)NC(=O)[C@H](Cc2ccc(-c3ccccc3)cc2)NC1=O` [Example 2167] ({CH2CO}-Y(Carboxymethyl)[4Pal]DWL[Bip]V[NMeA][dL][Dab][Cha]V[Cit]C[Cit][AEEA][Aun]-OH; thioether N-14), for which the IC50 came out at 24.4 nM.

Regarding `CC(C)C[C@@H]1NC(=O)[C@H](Cc2c[nH]c3ccccc23)NC(=O)[C@H](CC(=O)O)NC(=O)[C@H](Cc2ccncc2)NC(=O)[C@H](Cc2ccc(OCC(=O)O)cc2)NC(=O)CSC[C@@H](C(=O)NCCOCCOCC(=O)N[C@@H](CCCN)C(=O)NCCCCCCCCCCC(=O)O)NC(=O)[C@H](CCCNC(N)=O)NC(=O)[C@H](C(C)C)NC(=O)[C@H](CC2CCCCC2)NC(=O)[C@H](CCN)NC(=O)[C@@H](CC(C)C)NC(=O)[C@H](C)N(C)C(=O)[C@H](C(C)C)NC(=O)[C@H](Cc2ccc(-c3ccccc3)cc2)NC1=O` [Example 2168] ({CH2CO}-Y(Carboxymethyl)[4Pal]DWL[Bip]V[NMeA][dL][Dab][Cha]V[Cit]C[AEEA][Orn][Aun]-OH; thioether N-14), the IC50 amounted to 9 nM.

Consider `CC(=O)NCCC[C@@H]1NC(=O)[C@H](C(C)C)NC(=O)[C@H](CC2CCCCC2)NC(=O)[C@H](CCN)NC(=O)[C@@H](CC(C)C)NC(=O)[C@H](C)N(C)C(=O)[C@H](C(C)C)NC(=O)[C@H](Cc2ccc(-c3ccccc3)cc2)NC(=O)[C@H](CC(C)C)NC(=O)[C@H](Cc2c[nH]c3ccccc23)NC(=O)[C@H](CC(=O)O)NC(=O)[C@H](Cc2ccncc2)NC(=O)[C@H](Cc2ccc(OCC(=O)O)cc2)NC(=O)CSC[C@@H](C(=O)NCC(=O)NCCOCCOCC(=O)N[C@@H](CN)C(=O)NCCCCCCCCCCC(=O)O)NC1=O` [Example 2169] ({CH2CO}-Y(Carboxymethyl)[4Pal]DWL[Bip]V[NMeA][dL][Dab][Cha]V[Orn](Ac)CG[AEEA][Dap][Aun]-OH; thioether N-14), for which the IC50 was determined as 12.6 nM.

Consider `CC(C)C[C@@H]1NC(=O)[C@H](Cc2c[nH]c3ccccc23)NC(=O)[C@H](CC(=O)O)NC(=O)[C@H](Cc2ccncc2)NC(=O)[C@H](Cc2ccc(OCC(=O)O)cc2)NC(=O)CSC[C@@H](C(=O)NCC(=O)NCCOCCOCC(=O)N[C@@H](CCN)C(=O)NCCCCCCCCCCC(=O)O)NC(=O)[C@H](CCCNC(N)=O)NC(=O)[C@H](C(C)C)NC(=O)[C@H](CC2CCCCC2)NC(=O)[C@H](CCN)NC(=O)[C@@H](CC(C)C)NC(=O)[C@H](C)N(C)C(=O)[C@H](C(C)C)NC(=O)[C@H](Cc2ccc(-c3ccccc3)cc2)NC1=O` [Example 2170] ({CH2CO}-Y(Carboxymethyl)[4Pal]DWL[Bip]V[NMeA][dL][Dab][Cha]V[Cit]CG[AEEA][Dab][Aun]-OH; thioether N-14), for which the IC50 amounted to 8.6 nM.

On to `CC(C)C[C@@H]1NC(=O)[C@H](Cc2c[nH]c3ccccc23)NC(=O)[C@H](CC(=O)O)NC(=O)[C@H](Cc2ccncc2)NC(=O)[C@H](Cc2ccc(OCC(=O)O)cc2)NC(=O)CSC[C@@H](C(=O)NCC(=O)NCCOCCOCC(=O)N[C@@H](CCCCN)C(=O)NCCCCCCCCCCC(=O)O)NC(=O)[C@H](CCCNC(N)=O)NC(=O)[C@H](C(C)C)NC(=O)[C@H](CC2CCCCC2)NC(=O)[C@H](CCN)NC(=O)[C@@H](CC(C)C)NC(=O)[C@H](C)N(C)C(=O)[C@H](C(C)C)NC(=O)[C@H](Cc2ccc(-c3ccccc3)cc2)NC1=O` [Example 2172] ({CH2CO}-Y(Carboxymethyl)[4Pal]DWL[Bip]V[NMeA][dL][Dab][Cha]V[Cit]CG[AEEA]K[Aun]-OH; thioether N-14), for which the IC50 was determined as 13 nM.

Consider `CC(C)C[C@@H]1NC(=O)[C@H](Cc2c[nH]c3ccccc23)NC(=O)[C@H](CC(=O)O)NC(=O)[C@H](Cc2ccncc2)NC(=O)[C@H](Cc2ccc(OCC(=O)O)cc2)NC(=O)CSC[C@@H](C(=O)NCC(=O)NCCOCCOCC(=O)N[C@@H](CCCNC(N)=O)C(=O)NCCCCCCCCCCC(=O)O)NC(=O)[C@H](CCCNC(N)=O)NC(=O)[C@H](C(C)C)NC(=O)[C@H](CC2CCCCC2)NC(=O)[C@H](CCN)NC(=O)[C@@H](CC(C)C)NC(=O)[C@H](C)N(C)C(=O)[C@H](C(C)C)NC(=O)[C@H](Cc2ccc(-c3ccccc3)cc2)NC1=O` [Example 2173] ({CH2CO}-Y(Carboxymethyl)[4Pal]DWL[Bip]V[NMeA][dL][Dab][Cha]V[Cit]CG[AEEA][Cit][Aun]-OH; thioether N-14), for which the IC50 is 15.6 nM.

On to `CC(C)C[C@@H]1NC(=O)[C@H](Cc2c[nH]c3ccccc23)NC(=O)[C@H](CC(=O)O)NC(=O)[C@H](Cc2ccncc2)NC(=O)[C@H](Cc2ccc(OCC(=O)O)cc2)NC(=O)CSC[C@@H](C(=O)NCCOCCOCC(=O)N[C@@H](CCCNC(N)=O)C(=O)NCCCCCCCCCCC(=O)O)NC(=O)[C@H](CCCNC(N)=O)NC(=O)[C@H](C(C)C)NC(=O)[C@H](CC2CCCCC2)NC(=O)[C@H](CCN)NC(=O)[C@@H](CC(C)C)NC(=O)[C@H](C)N(C)C(=O)[C@H](C(C)C)NC(=O)[C@H](Cc2ccc(-c3ccccc3)cc2)NC1=O` [Example 2174] ({CH2CO}-Y(Carboxymethyl)[4Pal]DWL[Bip]V[NMeA][dL][Dab][Cha]V[Cit]C[AEEA][Cit][Aun]-OH; thioether N-14), for which the IC50 amounted to 16.4 nM.

In the case of `CC(C)C[C@@H]1NC(=O)[C@H](Cc2c[nH]c3ccccc23)NC(=O)[C@H](CC(=O)O)NC(=O)[C@H](Cc2ccc(OCC(=O)O)cc2)NC(=O)[C@H](CCCCNC(=N)N)NC(=O)CSC[C@@H](C(=O)N[C@@H](CCCN)C(=O)NCCOCCOCC(=O)NCCCCCCCCCCC(=O)O)NC(=O)[C@H](CCCNC(N)=O)NC(=O)[C@H](C(C)C)NC(=O)[C@H](CC2CCCCC2)NC(=O)[C@H](CN)NC(=O)[C@@H](CC(C)C)NC(=O)[C@H](C)N(C)C(=O)[C@H](C(C)C)NC(=O)[C@H](Cc2ccc(-c3ccccc3)cc2)NC1=O` [Example 2177] ({CH2CO}-[hArg]Y(Carboxymethyl)DWL[Bip]V[NMeA][dL][Dap][Cha]V[Cit]C[Orn][AEEA][Aun]-OH; thioether N-14), the IC50 is 25.9 nM.

Consider `CC(C)C[C@@H]1NC(=O)[C@H](Cc2c[nH]c3ccccc23)NC(=O)[C@H](CC(=O)O)NC(=O)[C@H](Cc2ccc(OCC(=O)O)cc2)NC(=O)[C@H](CCCCNC(=N)N)NC(=O)CSC[C@@H](C(=O)NCC(=O)NCCOCCOCC(=O)N[C@@H](CN)C(=O)NCCCCCCCCCCC(=O)O)NC(=O)[C@H](CCCNC(N)=O)NC(=O)[C@H](C(C)C)NC(=O)[C@H](CC2CCCCC2)NC(=O)[C@H](CCN)NC(=O)[C@@H](CC(C)C)NC(=O)[C@H](C)N(C)C(=O)[C@H](C(C)C)NC(=O)[C@H](Cc2ccc(-c3ccccc3)cc2)NC1=O` [Example 2178] ({CH2CO}-[hArg]Y(Carboxymethyl)DWL[Bip]V[NMeA][dL][Dab][Cha]V[Cit]CG[AEEA][Dap][Aun]-OH; thioether N-14), for which the IC50 was determined as 8.5 nM.
